According to ChEMBL document CHEMBL3431459, “Roche carnitine palmitoyltransferase modulator screening data (supplementary data associated with the publication CHEMBL2216752)”:
pIC50: −log10 of the molar value. Converted amounts (≈) assume the structure as drawn.

Tests used:
[1] = target: T1, Carnitine O-palmitoyltransferase 1, muscle isoform (Homo sapiens, UniProt Q92523); assay: SUPPLEMENTARY: Inhibition of Carnitine palmitoyltransferase 1, muscle isoform; parameters: species or system Muscle tissue
T1 sequence (Q92523 whole entry): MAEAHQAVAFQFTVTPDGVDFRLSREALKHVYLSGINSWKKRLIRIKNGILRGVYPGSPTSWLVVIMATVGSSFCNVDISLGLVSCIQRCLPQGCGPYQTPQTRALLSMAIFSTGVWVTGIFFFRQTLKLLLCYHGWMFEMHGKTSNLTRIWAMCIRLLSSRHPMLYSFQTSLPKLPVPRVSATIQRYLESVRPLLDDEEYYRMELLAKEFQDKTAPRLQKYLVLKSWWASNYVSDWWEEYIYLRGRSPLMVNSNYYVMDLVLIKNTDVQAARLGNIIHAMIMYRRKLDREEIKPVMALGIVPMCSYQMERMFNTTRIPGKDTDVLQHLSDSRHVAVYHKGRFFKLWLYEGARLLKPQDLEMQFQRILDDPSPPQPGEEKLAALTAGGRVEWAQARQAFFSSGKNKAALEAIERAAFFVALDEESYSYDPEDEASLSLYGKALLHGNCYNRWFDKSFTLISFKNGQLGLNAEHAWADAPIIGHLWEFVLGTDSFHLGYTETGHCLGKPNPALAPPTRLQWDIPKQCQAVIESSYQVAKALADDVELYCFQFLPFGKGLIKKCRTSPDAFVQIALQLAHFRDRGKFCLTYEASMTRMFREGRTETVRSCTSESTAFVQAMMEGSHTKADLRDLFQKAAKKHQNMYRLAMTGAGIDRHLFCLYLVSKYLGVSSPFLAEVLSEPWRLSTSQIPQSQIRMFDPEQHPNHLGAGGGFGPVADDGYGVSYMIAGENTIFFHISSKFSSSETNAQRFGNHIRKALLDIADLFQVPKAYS

[2] = target: T2, Carnitine O-palmitoyltransferase 2, mitochondrial (Homo sapiens, UniProt P23786); assay: (§1) SUPPLEMENTARY: Inhibition of Carnitine palmitoyltransferase 2
T2 sequence (P23786 whole entry): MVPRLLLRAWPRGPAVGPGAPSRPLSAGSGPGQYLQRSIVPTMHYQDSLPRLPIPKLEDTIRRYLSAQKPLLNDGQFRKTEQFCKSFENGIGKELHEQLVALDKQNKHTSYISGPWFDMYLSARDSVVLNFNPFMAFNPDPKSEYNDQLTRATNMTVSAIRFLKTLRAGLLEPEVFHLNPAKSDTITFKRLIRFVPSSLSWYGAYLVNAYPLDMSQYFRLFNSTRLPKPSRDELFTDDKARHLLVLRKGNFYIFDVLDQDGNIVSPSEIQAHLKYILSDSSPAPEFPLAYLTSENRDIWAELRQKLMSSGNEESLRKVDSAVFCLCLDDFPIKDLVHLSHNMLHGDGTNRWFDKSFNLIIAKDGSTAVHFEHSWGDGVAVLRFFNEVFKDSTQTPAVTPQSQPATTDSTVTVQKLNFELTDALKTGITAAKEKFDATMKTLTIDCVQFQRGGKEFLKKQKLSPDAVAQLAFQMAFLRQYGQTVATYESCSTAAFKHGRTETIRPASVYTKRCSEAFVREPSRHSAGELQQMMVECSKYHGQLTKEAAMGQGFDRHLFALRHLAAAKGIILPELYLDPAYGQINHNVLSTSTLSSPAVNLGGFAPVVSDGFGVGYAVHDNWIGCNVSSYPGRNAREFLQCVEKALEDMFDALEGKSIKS

[3] = target: T3, Carnitine O-palmitoyltransferase 2, mitochondrial (Rattus norvegicus, UniProt P18886); assay: as §1
T3 sequence (P18886 whole entry): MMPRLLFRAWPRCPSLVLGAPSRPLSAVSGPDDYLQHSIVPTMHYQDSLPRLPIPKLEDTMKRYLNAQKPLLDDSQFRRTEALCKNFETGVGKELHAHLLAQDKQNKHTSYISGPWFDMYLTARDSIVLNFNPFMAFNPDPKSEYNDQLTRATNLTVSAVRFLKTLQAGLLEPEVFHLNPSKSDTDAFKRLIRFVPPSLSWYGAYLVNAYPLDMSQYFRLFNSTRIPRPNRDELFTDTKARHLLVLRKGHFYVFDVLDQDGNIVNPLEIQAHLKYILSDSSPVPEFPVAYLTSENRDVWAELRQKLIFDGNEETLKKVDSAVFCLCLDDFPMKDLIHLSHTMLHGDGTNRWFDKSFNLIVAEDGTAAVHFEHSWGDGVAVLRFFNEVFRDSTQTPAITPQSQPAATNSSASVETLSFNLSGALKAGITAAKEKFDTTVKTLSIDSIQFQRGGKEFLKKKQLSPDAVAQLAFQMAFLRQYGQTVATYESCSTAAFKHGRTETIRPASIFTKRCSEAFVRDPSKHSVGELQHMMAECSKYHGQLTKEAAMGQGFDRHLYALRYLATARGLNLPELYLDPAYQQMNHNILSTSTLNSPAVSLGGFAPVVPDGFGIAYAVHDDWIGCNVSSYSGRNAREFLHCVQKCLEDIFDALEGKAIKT

[4] = target: T4, Carnitine O-palmitoyltransferase 1, liver isoform (Homo sapiens, UniProt P50416); assay: (§2) SUPPLEMENTARY: Inhibition of Carnitine palmitoyltransferase 1, liver isoform
T4 sequence (P50416 whole entry): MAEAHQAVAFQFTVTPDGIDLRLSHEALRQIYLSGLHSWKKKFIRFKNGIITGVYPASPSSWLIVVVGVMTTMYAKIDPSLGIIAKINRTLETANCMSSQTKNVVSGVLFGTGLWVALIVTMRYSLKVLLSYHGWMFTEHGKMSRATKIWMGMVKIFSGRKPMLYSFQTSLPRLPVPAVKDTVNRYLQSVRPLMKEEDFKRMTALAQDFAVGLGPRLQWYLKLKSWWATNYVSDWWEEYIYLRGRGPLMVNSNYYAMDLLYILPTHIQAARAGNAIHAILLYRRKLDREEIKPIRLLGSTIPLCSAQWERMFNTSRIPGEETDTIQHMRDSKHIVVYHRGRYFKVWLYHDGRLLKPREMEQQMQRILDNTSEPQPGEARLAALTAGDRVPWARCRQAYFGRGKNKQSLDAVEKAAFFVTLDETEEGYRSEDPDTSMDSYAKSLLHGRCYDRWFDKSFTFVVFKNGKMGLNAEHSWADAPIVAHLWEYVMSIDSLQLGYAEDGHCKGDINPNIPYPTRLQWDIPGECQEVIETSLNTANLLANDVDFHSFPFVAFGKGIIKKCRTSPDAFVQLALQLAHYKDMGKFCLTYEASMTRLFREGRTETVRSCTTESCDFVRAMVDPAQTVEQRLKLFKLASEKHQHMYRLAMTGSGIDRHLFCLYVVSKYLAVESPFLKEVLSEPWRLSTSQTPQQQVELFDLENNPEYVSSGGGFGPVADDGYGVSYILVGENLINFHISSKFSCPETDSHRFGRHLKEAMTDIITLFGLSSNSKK

[5] = target: T5, Carnitine O-palmitoyltransferase 1, liver isoform (Rattus norvegicus, UniProt P32198); assay: as §2
T5 sequence (P32198 whole entry): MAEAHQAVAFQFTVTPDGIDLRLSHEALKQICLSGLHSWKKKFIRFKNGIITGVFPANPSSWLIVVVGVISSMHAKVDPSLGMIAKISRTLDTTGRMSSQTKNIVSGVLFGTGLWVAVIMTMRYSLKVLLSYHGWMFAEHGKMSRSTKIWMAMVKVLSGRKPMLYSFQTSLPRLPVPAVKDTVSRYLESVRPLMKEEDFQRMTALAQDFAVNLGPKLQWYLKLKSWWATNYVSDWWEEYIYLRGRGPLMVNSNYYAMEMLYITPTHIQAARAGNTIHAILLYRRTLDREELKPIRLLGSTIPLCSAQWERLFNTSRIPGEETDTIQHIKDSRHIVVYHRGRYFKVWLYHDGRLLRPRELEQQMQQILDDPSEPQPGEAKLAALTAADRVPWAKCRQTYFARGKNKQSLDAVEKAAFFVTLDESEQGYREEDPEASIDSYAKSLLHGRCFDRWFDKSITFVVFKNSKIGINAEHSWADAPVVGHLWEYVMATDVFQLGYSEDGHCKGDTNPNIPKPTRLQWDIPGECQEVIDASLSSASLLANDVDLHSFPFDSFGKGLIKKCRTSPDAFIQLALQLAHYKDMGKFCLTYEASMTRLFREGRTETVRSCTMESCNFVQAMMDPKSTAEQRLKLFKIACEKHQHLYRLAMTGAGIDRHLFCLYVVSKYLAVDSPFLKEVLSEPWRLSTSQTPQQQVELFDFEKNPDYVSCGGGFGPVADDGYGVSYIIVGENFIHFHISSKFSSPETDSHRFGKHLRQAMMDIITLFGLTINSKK

[6] = SUPPLEMENTARY: Lyophilisation Solubility Assay (LYSA); format: physicochemical; settings: read-out: Kinetic_solubility
[7] = SUPPLEMENTARY: Lipophilicity (log D) Determination by high-throughput shake-flask; format: physicochemical; settings: octanol/water
[8] = SUPPLEMENTARY: PAMPA permeability assay; format: physicochemical; settings: read-out: Permeability

pIC50 [1]	pIC50 [2]	pIC50 [3]	pIC50 [4]	pIC50 [5]	solubility kinetic [6] [µg/mL]	logD [7]	Papp [8] [×10⁻⁶ cm/s]	Compound
< 4.00	< 4.00	< 4.00	6.77	5.90	191 (≈ 467 µM)	1.05	2.86	NC(=O)c1cncc(-c2noc([C@H]3COCCN3C(=O)COc3ccccc3)n2)c1
< 4.00	< 4.00	< 4.00	6.64	6.12	11 (≈ 28.2 µM)	2.49	6.36	N#Cc1cncc(-c2noc([C@H]3CCCCN3C(=O)COc3ccccc3)n2)c1
4.41	4.19	4.03	6.87	6.41	38 (≈ 91.3 µM)	2.51	5.4	O=C1Cc2cc(-c3noc(C4C5CC5CN4C(=O)COc4ccccc4)n3)ccc2N1 (stereo not given)
5.31	5.71	4.98	7.21	7.07	59 (≈ 112 µM)	0.63	1.87	COc1ccc(Cl)cc1S(=O)(=O)N1COc2c(F)cc(C(=O)Nc3ccc(C(=O)O)c(F)c3)cc21
5.93	6.23	5.41	7.04	7.33	493 (≈ 950 µM)	0.6	1.99	COc1ccc(Cl)cc1S(=O)(=O)N1CC(C)c2ccc(C(=O)Nc3ccc(C(=O)O)c(F)c3)cc21 (stereo not given)
5.88	6.16	5.79	6.72	7.20	528 (≈ 986 µM)	0.57	1.77	COc1ccc(Cl)cc1S(=O)(=O)N1CC(C)c2ccc(C(=O)Nc3ccc(C(=O)O)c(Cl)c3)cc21 (stereo not given)
< 4.00	4.73	< 4.00	7.20	6.83	57 (≈ 131 µM)	2.51	2.49	NC(=O)COc1cccc(-c2noc([C@H]3CCCCN3C(=O)COc3ccccc3)n2)c1
< 4.00	4.66	< 4.00	7.09	6.84	6 (≈ 15.4 µM)	3.16	5.52	N#Cc1ccc(-c2nc([C@H]3CCCCN3C(=O)COc3ccccc3)no2)cc1
< 4.00	4.81	< 4.00	7.07	6.38	< 1	3.17	3.83	N#Cc1cccc(-c2nc([C@H]3CCCCN3C(=O)COc3ccccc3)no2)c1
< 4.00	4.72	< 4.00	6.84	6.03	19 (≈ 50.1 µM)	2.39	5.07	Nc1cncc(-c2nc([C@H]3CCCCN3C(=O)COc3ccccc3)no2)c1
5.60	5.35	4.64	6.70	6.83	6 (≈ 13.2 µM)	2.21	0.18	COc1ccc(Cl)cc1Sc1c[nH]c2ccc(C(=O)Nc3ccc(C(=O)O)cc3)cc12
5.63	6.24	5.37	7.15	7.29	12 (≈ 24.1 µM)	2.36	0.47	COc1ccc(Cl)cc1S(=O)(=O)c1cn(C)c2ccc(C(=O)Nc3ccc(C(=O)O)cc3)cc12
< 4.00	< 4.00	< 4.00	6.86	5.81	> 505	1.14	3.03	Cc1ncc(-c2noc([C@H]3CCCCN3C(=O)COc3ccccc3)n2)c(=O)[nH]1
< 4.00	< 4.00	< 4.00	6.96	7.04	45 (≈ 102 µM)	2.04	5.17	NS(=O)(=O)c1ccc(-c2noc(C3C4CC4CN3C(=O)COc3ccccc3)n2)cc1 (stereo not given)
5.34	5.82	5.19	7.24	7.25	7 (≈ 13 µM)	0.52	1.66	COc1ccc(Cl)cc1S(=O)(=O)N1CCOc2c(F)cc(C(=O)Nc3ccc(C(=O)O)c(F)c3)cc21
